Reference: the OPERA property sets (Mansouri et al. 2018)
Where a SMILES comes first, the peptide text is derived from it.

| SMILES | logP |
| --- | --- |
| Cc1oc2ccc3c(C)cc(=O)[nH]c3c2c1C | 3.18 |
| Cc1nc2c3c(c(C(=O)N(C)C)cn2c1CO)CCC(c1ccccc1)O3 (stereo not given) | 1.72 |
| Cc1cc(C)c2c(c1)COP(=O)(OCC1C=CC(n3cc(C)c(=O)[nH]c3=O)O1)O2 (stereo not given) | 1.18 |
| O=S(=O)(NC(=S)N1CCCCC1)c1cnccc1NC1CCCCCC1 | 4.15 |
| Cn1nc(C(F)(F)F)n(-c2ccccc2)c1=S | 2.58 |
| CC(C)CCCCNc1[nH]cnc2ncnc1-2 | 3.61 |
| COc1ccc2cc(C(C)C(=O)OCCCOC(C)=O)ccc2c1 (stereo not given) | 3.3 |
| C/C(=C\CNc1ncnc2[nH]cnc12)CO | 0.6 |
| CC1CC2C3CCC4=CC(=O)C=CC4(C)C3(F)C(O)CC2(C)C1(O)C(=O)COC(=O)CC(C)(C)C (stereo not given) | 4.3 |
| CNC(C)Cc1ccc2c(c1)OCO2 (stereo not given) | 2.15 |
| Cc1c(C)c2ccc3occ(C)c3c2oc1=O | 3.34 |
| CC(C)C(C)NC(CO)C(O)c1ccccc1 (stereo not given) | 1.61 |
| CC(=O)Oc1coc(CBr)cc1=O | 0.51 |
| CNC(C)Cc1ccc(N)cc1 (stereo not given) | 0.81 |
| COc1ccc(CCNCC(O)COc2ccc(-c3ncco3)cc2)cc1OC (stereo not given) | 2.6 |
| O=c1cc(-c2ccc(Cl)cc2Cl)oc2ccccc12 | 4.13 |
| C=CCN(N=O)C(=O)N(CCCCC(NC(C)=O)C(=O)NCc1ccccc1)Cc1ccccc1 (stereo not given) | 2.7 |
| CON(C)C(=O)Nc1cccc(C#N)c1 | 1.33 |
| CSCCC(N)C(=O)NC(C(=O)O)C(C)C (stereo not drawn) (H-Met-Val-OH; configuration not given here) | -2.53 |
| CCCCCCCCOC(=O)c1cccnc1 | 4.71 |
| CCCCCOc1ccc(NC(=O)OCCN2CCCCC2)cc1 | 5.31 |
| CC(C)CNC(=O)N1C(=O)N(C)CC1O (stereo not given) | 1.32 |

| SMILES | logP |
| --- | --- |
| CCN(CC)CCSC(=NO)c1nc(-c2ccccc2)no1 | 3.05 |
| Cc1cccc(N2CCN(CC3CN=C(N)O3)CC2)c1 (stereo not given) | 1.46 |
| CC(C)CNc1ncnc2c1ncn2C1OC(CO)C(O)C1O (stereo not given) | 1.01 |
| Cc1cccc(OCC2CN=C(N)O2)c1C (stereo not given) | 2.25 |
| CCOC(=O)Nc1ccc2cc3ccc4c(c3nc2c1)COCN4C(=O)OCC | 3.12 |
| C=C(C)CC(C)(CCC=C(C)C)OC(C)=O (stereo not given) | 4.36 |
| CC(NC(=O)C(C)NC(=O)C(N)C(C)C)C(=O)NC(Cc1ccccc1)C(=O)O (stereo not given) (H-VAAF-OH; configuration not given here) | -1.91 |
| O=C(O)CCCCCON=C(c1ccccc1)c1ccncn1 | 2.66 |
| NC1=NCC(CN2CCN(c3ccc([N+](=O)[O-])cc3)CC2)O1 (stereo not given) | 1.23 |
| Nc1nc(N)nc(O)n1 | -0.19 |
| O=C1c2ccc(O)cc2OCN1CCO[N+](=O)[O-] | 1.63 |
| COCC(O)CN(C(C)=O)c1c(I)c(C(=O)NCC(O)CO)c(I)c(C(=O)NCC(O)CO)c1I (stereo not given) | -2.42 |
| NC(=O)C(CCCN1CC2CCC(CC2)C1)(c1ccccc1)c1ccccn1 (stereo not given) | 2.88 |
| CCCCCNC(=O)N1C(=O)N(C)CC1O (stereo not given) | 1.75 |
| CC(C)CC(N)C(=O)NC(CC(C)C)C(=O)N1CCCC1C(=O)NC(CC(C)C)C(=O)O (stereo not given) (H-LLPL-OH; configuration not given here) | -1 |
| CCOC(=O)C1=C(C)NC(C)=C(C(=O)OC)C1c1ccccc1OCOC (stereo not given) | 3.78 |
| O=C(O)CCCCON=C(c1ccccc1)c1ncccn1 | 1.94 |
| CC(=O)NN=Cc1c(CO)ccc(C)c1O | 1.71 |
| CC(C)CC(NC(=O)C(N)Cc1ccccc1)C(=O)O (stereo not drawn) (H-Phe-Leu-OH; configuration not given here) | -1.17 |
| Nc1nc(N)c2c(I)cccc2n1 | 2.12 |
| CC(C)NC(=NC#N)NS(=O)(=O)c1cnccc1Nc1cccc(C(F)(F)F)c1 | 2.54 |
| COc1cc(OC)c(C=[N+]([O-])C(C)(C)C)c(OC)c1 | 1.2 |

| SMILES | logP |
| --- | --- |
| Cc1nc2c3c(c(C(=O)N4CC(O)C4)cn2c1C)CCC(c1ccccc1)O3 (stereo not given) | 3.1 |
| O=c1nc2[nH]nc(-c3ccccc3)cc-2c(=O)[nH]1 | 1.56 |
| Cc1ccccc1Cc1c[nH]cn1 | 2.31 |
| COC(=O)C(C)NP(=O)(OCC1C=CC(n2cc(C)c(=O)[nH]c2=O)O1)Oc1ccc(C#N)cc1 (stereo not given) | 0.91 |
| CCCc1c(O)c(=O)cc(C)n1C | 0.4 |
| CC(C)NC(=NC#N)NS(=O)(=O)c1cnccc1NC1CCCCC1 | 1.53 |
| Cc1c(C)c2cc(C)c3occc3c2oc1=O | 3.23 |
| c1ccc(CCCNc2[nH]cnc3ncnc2-3)cc1 | 2.85 |
| O=c1cc(-c2cccc(Cl)c2)oc2ccc(Cl)cc12 | 4.38 |
| COC1CC(OC2C(O)CC(OC3CCC4(C)C(CCC5C4CC(O)C4(C)C(C6=CC(=O)OC6)CCC54O)C3)OC2C)OC(C)C1OC1CC(O)C(O)C(C)O1 (stereo not given) | 1.8 |
| COC1CC(OC2C(C)OC(OC3CCC4(C)C(CCC5C4CC(O)C4(C)C(C6=CC(=O)OC6)CCC54O)C3)CC2OC)OC(C)C1OC1CC(O)C(O)C(C)O1 (stereo not given) | 2.14 |
| CNc1ccc(S(=O)(=O)N(C)C)cc1 | 1.43 |
| CC(=O)N(c1nc(=O)n(C(C)C)c(=O)n1C)C(C)C | 0.18 |
| COC(=O)c1cc(NC(=O)Cn2c(C)nc3ccccc3c2=O)cc(C(=O)OC)c1 | 2.98 |
| CCCCC(O)C(CCCCOc1cccc(C)c1)n1cncn1 (stereo not given) | 3.6 |
| NCC(=O)NC(Cc1ccccc1)C(=O)NC(Cc1ccccc1)C(=O)O (stereo not drawn) (H-Gly-Phe-Phe-OH; configuration not given here) | -1.33 |
| COc1ccc([N+](=O)[O-])c(C)c1 | 2.32 |
| C=CCON=C(C)c1cccc(Oc2nc(OC)cc(OC)n2)c1C(=O)OC | 3.13 |
| CC1CC2C3CCC4=CC(=O)C=CC4(C)C3(F)C(O)CC2(C)C1(O)C(=O)COC(=O)CC1CCCCC1 (stereo not given) | 4.95 |
| NC(=O)c1cccc(Cn2cnc3ccccc32)c1 | 1.7 |
| CC1OC(OC2C(C)OC(OC3C(C)OC(OC4CCC5(C)C(CCC6C5CCC5(C)C(C7=CC(=O)OC7)C(OC=O)CC65O)C4)CC3OC=O)CC2OC=O)CC(OC=O)C1OC=O (stereo not given) | 3.16 |
| OCCCCCNc1[nH]cnc2ncnc1-2 | 0.72 |

| SMILES | logP |
| --- | --- |
| Nc1nc(N)c2c(N3CCCCC3)cccc2n1 | 2.66 |
| Cc1cccn2c1nc1ccc(N)nc12 | 1.75 |
| CCCC(=NOCC)C1=C(O)CC2(CCCCC2C)OC1=O (stereo not given) | 3.9 |
| COC(=O)C(C)NP(=O)(OCC1C=CC(n2cc(C)c(=O)[nH]c2=O)O1)Oc1cccc(C(F)(F)F)c1 (stereo not given) | 1.57 |
| NC(=O)C1CN(CC(=O)Nc2c(Cl)cccc2Cl)CCN1CCCC(c1ccc(F)cc1)c1ccc(F)cc1 (stereo not given) | 5.26 |
| COc1cc2ncnc(Nc3cccc(F)c3)c2cc1OC | 2.96 |
| NC1CCN(c2nc3c(cc2F)c(=O)c(C(=O)O)cn3-c2ccc(F)cc2F)C1 (stereo not given) | -0.46 |
| CN1CC(O)N(C(=O)NC2CCCCCC2)C1=O (stereo not given) | 2.29 |
| CC(C)CC(NC(=O)C(Cc1ccccc1)NC(=O)C(N)C(C)C)C(=O)NC(C(=O)O)C(C)O (stereo not given) (H-VFLT-OH; configuration not given here) | -1.32 |
| CCOc1cc2ncnc(Nc3ccccc3F)c2cc1OCC | 3.02 |
| CCCc1ccccc1CNc1[nH]cnc2ncnc1-2 | 3.47 |
| CC#CC(=O)c1c(C)nc2c3c(c(C(=O)N(C)C)cn12)CCC(c1ccccc1)O3 (stereo not given) | 3.4 |
| CCCC(=NOCC)C1=C(O)CC2(CC(C)CC(C)C2)OC1=O (stereo not given) | 4.47 |
| CCCCCCNc1[nH]cnc2ncnc1-2 | 3.16 |
| Cc1ccc(S(=O)(=O)C2(C(=O)OC(C)C)CCCCC2)cc1 | 3.21 |
| CC(C)NCC(O)COc1ccc(-c2ncc[nH]2)cc1 (stereo not given) | 1.4 |
| COc1ccc(C2=NC(C(=O)O)CS2)c(O)c1OC (stereo not given) | 1.1 |
| OCCN1CCN(CCn2nc3ccccc3n2)CC1 | 0.43 |
| COc1cccc(-n2nnnc2N)c1 | 0.96 |
| CCCCCN(CCCCC)CC(O)c1ccccc1 (stereo not given) | 2.86 |
| CC(C)(C)[N+]([O-])=Cc1ccc(O)cc1 | 0.6 |
| COc1ccc(-c2ccoc2)cc1CNC1CCCNC1c1ccccc1 (stereo not given) | 4.2 |

| SMILES | logP |
| --- | --- |
| CCCOc1cccc(-c2c[nH]c(SCCc3c[nH]cn3)n2)c1 | 3.7 |
| CC(C)c1cc(=S)ss1 | 2.75 |
| CC(C)CC(NC(=O)C(Cc1ccccc1)NC(=O)CNC(=O)C(NC(=O)C(N)Cc1ccc(O)cc1)C(C)O)C(=O)O (stereo not given) (H-YTGFL-OH; configuration not given here) | -1.18 |
| O=c1[nH]c2cc(Cl)ccc2c(O)c1-c1ccccc1 | 3.5 |
| CC1(C(=O)O)CSC(c2cc(O)ccc2O)=N1 (stereo not given) | 1.3 |
| COc1cccc(C2CCCCC2=O)c1 (stereo not given) | 2.42 |
| OCCNc1ncnc2c1ncn2C1OC(CO)C(O)C1O (stereo not given) | -1.13 |
| Cc1cccc(C)c1Cc1cn[nH]c1 | 3.6 |
| CCN(CC)NC(=O)NS(=O)(=O)c1ccc(C)cc1 | 0.47 |
| COc1ccc2cc(C(C)C(=O)OCOC(C)=O)ccc2c1 (stereo not given) | 3.4 |
| COc1ccccc1CNc1ncnc2nc[nH]c12 | 2.31 |
| CCCCCC(=O)c1ccncc1 | 2.9 |
| CC(=O)C(Cc1ccccc1)=C(C)O | 1.89 |
| CC(C(=O)O)c1ccc(N2CC3CCCCC3C2=O)cc1 (stereo not given) | 3.15 |
| FC(F)(F)c1ccc(CNc2[nH]cnc3ncnc2-3)cc1 | 3.19 |
| CC(C)CC(NC(=O)C(C)NC(=O)C(C)NC(=O)C(C)NC(=O)C(N)Cc1ccccc1)C(=O)O (stereo not given) (H-FAAAL-OH; configuration not given here) | -2.23 |
| O=C(c1c(O)c2ccc(Cl)cc2[nH]c1=O)C1CC1 | 2.35 |
| Clc1ccc2oc3c(Cl)c(Cl)cc(Cl)c3c2c1 | 6.13 |
| CC(C)(C)[N+]([O-])=Cc1ccc(Cl)cc1 | 2.4 |
| CN(C1=NC(=O)N(c2ccc(Cl)cc2)C1)C1CCCCC1 | 2.7 |
| COc1cnc(C2=NC(C)(C(C)C)C(=O)N2)c(C(=O)O)c1 (stereo not given) | 0.61 |
| CCCCOC(NC(=O)c1ccccc1O)C(Cl)(Cl)Cl (stereo not given) | 4.45 |
